Test results reported in patent US12371411B2, “Water and thermal treatment of purified 2,5-furandicarboxylic acid” (Furanix Technologies B.V., priority 2019, dated 2025).

Experiment: Solubility of FDCA for a given temperature and solvent
Type: physicochemical
Details: for Solubility at T, wt % in solvent / Solubility at temp., wt % in solvent: estimated FDCA solubility
Source text: The skilled person can adjust the thermal treatment conditions to the required degree of dissolution, wherein the following table can be used that lists values for the solubility of FDCA at a given temperature depending on the solvent composition employed. […] Intermediate values can be obtained by interpolation.
For a better understanding, the estimated FDCA solubility in the given solvent at the process temperature is provided as well.

Solubility of FDCA (HAc:Water 0:100 by weight, 140° C.): 7.0 wt %
Solubility of FDCA (HAc:Water 0:100 by weight, 150° C.): 9.2 wt %
Solubility of FDCA (HAc:Water 0:100 by weight, 160° C.): 11.7 wt %
Solubility of FDCA (HAc:Water 0:100 by weight, 170° C.): 14.8 wt %
Solubility of FDCA (HAc:Water 0:100 by weight, 180° C.): 18.4 wt %
Solubility of FDCA (HAc:Water 0:100 by weight, 190° C.): 22.4 wt %
Solubility of FDCA (HAc:Water 0:100 by weight, 200° C.): 26.8 wt %
Solubility of FDCA (HAc:Water 10:90 by weight, 140° C.): 7.7 wt %
Solubility of FDCA (HAc:Water 10:90 by weight, 150° C.): 9.9 wt %
Solubility of FDCA (HAc:Water 10:90 by weight, 160° C.): 12.6 wt %
Solubility of FDCA (HAc:Water 10:90 by weight, 170° C.): 15.6 wt %
Solubility of FDCA (HAc:Water 10:90 by weight, 180° C.): 19.2 wt %
Solubility of FDCA (HAc:Water 10:90 by weight, 190° C.): 23.1 wt %
Solubility of FDCA (HAc:Water 10:90 by weight, 200° C.): 27.4 wt %
Solubility of FDCA (HAc:Water 20:80 by weight, 140° C.): 8.3 wt %
Solubility of FDCA (HAc:Water 20:80 by weight, 150° C.): 10.6 wt %
Solubility of FDCA (HAc:Water 20:80 by weight, 160° C.): 13.3 wt %
Solubility of FDCA (HAc:Water 20:80 by weight, 170° C.): 16.3 wt %
Solubility of FDCA (HAc:Water 20:80 by weight, 180° C.): 19.8 wt %
Solubility of FDCA (HAc:Water 20:80 by weight, 190° C.): 23.7 wt %
Solubility of FDCA (HAc:Water 20:80 by weight, 200° C.): 27.8 wt %
Solubility of FDCA (HAc:Water 30:70 by weight, 140° C.): 8.9 wt %
Solubility of FDCA (HAc:Water 30:70 by weight, 150° C.): 11.1 wt %
Solubility of FDCA (HAc:Water 30:70 by weight, 160° C.): 13.8 wt %
Solubility of FDCA (HAc:Water 30:70 by weight, 170° C.): 16.8 wt %
Solubility of FDCA (HAc:Water 30:70 by weight, 180° C.): 20.1 wt %
Solubility of FDCA (HAc:Water 30:70 by weight, 190° C.): 23.8 wt %
Solubility of FDCA (HAc:Water 30:70 by weight, 200° C.): 27.8 wt %
Solubility of FDCA (HAc:Water 40:60 by weight, 140° C.): 9.1 wt %
Solubility of FDCA (HAc:Water 40:60 by weight, 150° C.): 11.3 wt %
Solubility of FDCA (HAc:Water 40:60 by weight, 160° C.): 13.9 wt %
Solubility of FDCA (HAc:Water 40:60 by weight, 170° C.): 16.7 wt %
Solubility of FDCA (HAc:Water 40:60 by weight, 180° C.): 19.9 wt %
Solubility of FDCA (HAc:Water 40:60 by weight, 190° C.): 23.4 wt %
Solubility of FDCA (HAc:Water 40:60 by weight, 200° C.): 27.1 wt %
Solubility of FDCA (HAc:Water 50:50 by weight, 140° C.): 9.0 wt %
Solubility of FDCA (HAc:Water 50:50 by weight, 150° C.): 11.0 wt %
Solubility of FDCA (HAc:Water 50:50 by weight, 160° C.): 13.4 wt %
Solubility of FDCA (HAc:Water 50:50 by weight, 170° C.): 16.0 wt %
Solubility of FDCA (HAc:Water 50:50 by weight, 180° C.): 19.0 wt %
Solubility of FDCA (HAc:Water 50:50 by weight, 190° C.): 22.1 wt %
Solubility of FDCA (HAc:Water 50:50 by weight, 200° C.): 25.6 wt %
Solubility of FDCA (HAc:Water 60:40 by weight, 140° C.): 8.2 wt %
Solubility of FDCA (HAc:Water 60:40 by weight, 150° C.): 10.0 wt %
Solubility of FDCA (HAc:Water 60:40 by weight, 160° C.): 12.1 wt %
Solubility of FDCA (HAc:Water 60:40 by weight, 170° C.): 14.5 wt %
Solubility of FDCA (HAc:Water 60:40 by weight, 180° C.): 17.0 wt %
Solubility of FDCA (HAc:Water 60:40 by weight, 190° C.): 19.9 wt %
Solubility of FDCA (HAc:Water 60:40 by weight, 200° C.): 22.9 wt %
Solubility of FDCA (HAc:Water 70:30 by weight, 140° C.): 6.8 wt %
Solubility of FDCA (HAc:Water 70:30 by weight, 150° C.): 8.3 wt %
Solubility of FDCA (HAc:Water 70:30 by weight, 160° C.): 10.0 wt %
Solubility of FDCA (HAc:Water 70:30 by weight, 170° C.): 12.0 wt %
Solubility of FDCA (HAc:Water 70:30 by weight, 180° C.): 14.2 wt %
Solubility of FDCA (HAc:Water 70:30 by weight, 190° C.): 16.6 wt %
Solubility of FDCA (HAc:Water 70:30 by weight, 200° C.): 19.2 wt %
Solubility of FDCA (HAc:Water 80:20 by weight, 140° C.): 4.9 wt %
Solubility of FDCA (HAc:Water 80:20 by weight, 150° C.): 6.1 wt %
Solubility of FDCA (HAc:Water 80:20 by weight, 160° C.): 7.5 wt %
Solubility of FDCA (HAc:Water 80:20 by weight, 170° C.): 9.1 wt %
Solubility of FDCA (HAc:Water 80:20 by weight, 180° C.): 10.9 wt %
Solubility of FDCA (HAc:Water 80:20 by weight, 190° C.): 12.9 wt %
Solubility of FDCA (HAc:Water 80:20 by weight, 200° C.): 15.1 wt %
Solubility of FDCA (HAc:Water 90:10 by weight, 140° C.): 3.5 wt %
Solubility of FDCA (HAc:Water 90:10 by weight, 150° C.): 4.5 wt %
Solubility of FDCA (HAc:Water 90:10 by weight, 160° C.): 5.6 wt %
Solubility of FDCA (HAc:Water 90:10 by weight, 170° C.): 7.0 wt %
Solubility of FDCA (HAc:Water 90:10 by weight, 180° C.): 8.7 wt %
Solubility of FDCA (HAc:Water 90:10 by weight, 190° C.): 10.6 wt %
Solubility of FDCA (HAc:Water 90:10 by weight, 200° C.): 12.8 wt %
Solubility of FDCA (HAc:Water 95:5 by weight, 140° C.): 3.3 wt %
Solubility of FDCA (HAc:Water 95:5 by weight, 150° C.): 4.4 wt %
Solubility of FDCA (HAc:Water 95:5 by weight, 160° C.): 5.7 wt %
Solubility of FDCA (HAc:Water 95:5 by weight, 170° C.): 7.3 wt %
Solubility of FDCA (HAc:Water 95:5 by weight, 180° C.): 9.3 wt %
Solubility of FDCA (HAc:Water 95:5 by weight, 190° C.): 11.6 wt %
Solubility of FDCA (HAc:Water 95:5 by weight, 200° C.): 14.3 wt %
Solubility at T, wt % in solvent (HAc:Water 0:100, 130° C. (test Comp. 4)): 5.3 wt % in solvent
Solubility at temp., wt % in solvent (HAc:Water 0:100, 180° C. (test Ex. 3)): 18.4 wt % in solvent
Solubility at T, wt % in solvent (HAc:Water 70:30, 125° C. (test Comp. 3)): 6.1 wt % in solvent
Solubility at temp., wt % in solvent (HAc:Water 70:30, 180° C. (tests Ex. 1, Ex. 2)): 14.2 wt % in solvent
SMILES: O=C(O)c1ccc(C(=O)O)o1 [FDCA, 2,5-Furandicarboxylic acid]
